Assay results: article PMC8256334, “Simultaneous Determination of a Novel PD-L1 Inhibitor, IMMH-010, and Its Active Metabolite, YPD-29B, in Rat Biological Matrices by Polarity-Switching Liquid Chromatography-Tandem Mass Spectrometry: Application to ADME Studies” (Frontiers in Pharmacology, 2021)
Where “and” joins values, the source holds several entries; their conditions need not be identical. Equal values may be shown once. Read-outs that look alike come from different tables or passages of the source. One block for each compound: values may come before it.

How the values were obtained:
Stability in rat plasma = type: in vitro ADME; details: for Accuracy (RE, %) / Measured conc.: n = 5; for stability during the sample preparation, storage and analysis: rat plasma: 4°C 4 h, −20°C 3 months, three freeze-thaw cycles, autosampler 10°C 48 h
Method: Plasma: IMMH-010 is an ester-containing compound. […] Therefore, heparin sodium and NaF were dissolved with 0.9% w/v sodium chloride to prepare a mixture of 0.5% heparin sodium and 500 mM NaF. All blood was withdrawn into EP tubes containing this mixture (1:9 v/v mixture:blood) followed by plasma separation. The plasma standards for IMMH-010 were prepared at 1, 2, 5, 10, 20, 80, 120 and 200 ng/ml, and those for YPD-29B were prepared at 2.5, 5, 10, 20, 50, 400, 600 and 1,000 ng/ml. QC samples were prepared at 1, 2, 40 and 160 ng/ml for IMMH-010 and 2.5, 5, 200 and 800 ng/ml for YPD-29B.
For short-term and long-term stability, plasma samples were kept at 4°C for 4 h and −20°C for 3 months, respectively. To evaluate freeze-thaw stability, samples were frozen at −20°C for 24 h and thawed at 4°C for three cycles. […] Stability assays of IMMH-010 and YPD-29B were performed at two QC levels (high and low QC) (n = 5).

[1] = Excretion study in rats (urine and feces); type: in vivo, Sprague-Dawley rats; details: for excretion in feces, % Of administered dose / excretion in urine, % Of administered dose: i.g. IMMH-010 maleate 10 mg/kg, n = 5; for share of the dose recovered in the urine and feces as this analyte: urine and feces within 72 h, rats, oral IMMH-010 maleate
Method: (§1) Female Sprague-Dawley rats (200 ± 20 g, Vital River, Beijing, China) were kept in standard environmental conditions. Rats were fasted overnight with free access to water and randomly assigned to different groups before the experiments. All animal protocols were approved by the Institute Animal Care and Welfare Committee of the Institute of Materia Medica, Chinese Academy of Medical Sciences and Peking Union Medical College.
After i. g. administration of IMMH-010 maleate (10 mg/kg), rats were housed in separate metabolite cages to collect their urine and feces: 0–12, 12–24, 24–36, 36–48, and 48–72 h for urine and 0–24, 24–48, and 48–72 h for feces. Fecal samples were dried in air. Urine samples were stored at −20°C prior to analysis.

[2] = PK study in rats after single i.g. administration of IMMH-010 maleate; type: in vivo, Sprague-Dawley rats; details: for AUC(0-inf) / AUC(0-t) / Cmax / MRT last / MRT inf / Tmax / half-life: female, Sprague-Dawley, po; for AUC(0-inf) / AUC(0-t) / Cmax / MRT last / MRT inf / Tmax / half-life / dose dependence of AUC: rat plasma; for MRT last: read-out: MRT(0-t); for MRT inf: read-out: MRT(0-∞); for Tmax: median (range); for half-life: rat, plasma; for dose dependence of AUC: dose range 10–100 mg/kg IMMH-010 maleate, oral
Excerpt: as §1
IMMH-010 maleate was suspended in 0.5% sodium carboxymethyl cellulose. The rats were intragastrically (i.g.) administered IMMH-010 maleate at doses of 10, 30, and 100 mg/kg. Blood samples were withdrawn via the orbital plexus into heparinized tubes with NaF at 5, 15, and 30 min and 1, 2, 4, 6, 8, 12, 24, 36, and 48 h. Plasma was immediately prepared by centrifugation at 5,000 rpm for 10 min. All samples were stored at −20°C prior to analysis. The PK parameters of IMMH-010 and YPD-29B were calculated using the Linear Trapezoidal with Linear Interpolation method by WinNonlin software version 6.3 based on a noncompartmental model (Pharsight Corporation, Mountain View, United States ).

[3] = prepared rat plasma samples, at 15°C in auto-sampler (24 h), spiked 2 ng/ml IMMH-010, 5 ng/ml YPD-29B
[4] = prepared rat plasma samples, at 15°C in auto-sampler (24 h), spiked 160 ng/ml IMMH-010, 800 ng/ml YPD-29B
[5] = prepared rat plasma samples, at 15°C in auto-sampler (48 h), spiked 2 ng/ml IMMH-010, 5 ng/ml YPD-29B
[6] = prepared rat plasma samples, at 15°C in auto-sampler (48 h), spiked 160 ng/ml IMMH-010, 800 ng/ml YPD-29B
[7] = rat plasma, 4°C (4 h), spiked 2 ng/ml IMMH-010, 5 ng/ml YPD-29B
[8] = rat plasma, 4°C (4 h), spiked 160 ng/ml IMMH-010, 800 ng/ml YPD-29B
[9] = rat plasma, stored at −20°C (3 months), spiked 2 ng/ml IMMH-010, 5 ng/ml YPD-29B
[10] = rat plasma, stored at −20°C (3 months), spiked 160 ng/ml IMMH-010, 800 ng/ml YPD-29B
[11] = rat plasma, three freeze–thaw cycles, spiked 2 ng/ml IMMH-010, 5 ng/ml YPD-29B
[12] = rat plasma, three freeze–thaw cycles, spiked 160 ng/ml IMMH-010, 800 ng/ml YPD-29B
[13] = single i.g. IMMH-010 maleate 10 mg/kg, mean ± SD, n = 5
[14] = single i.g. IMMH-010 maleate 10 mg/kg, n = 5
[15] = single i.g. IMMH-010 maleate 30 mg/kg, mean ± SD, n = 5
[16] = single i.g. IMMH-010 maleate 30 mg/kg, n = 5
[17] = single i.g. IMMH-010 maleate 100 mg/kg, mean ± SD, n = 5
[18] = single i.g. IMMH-010 maleate 100 mg/kg, n = 5
[19] = 30 mg/kg, single i.g. IMMH-010 maleate 30 mg/kg, mean ± SD, n = 5, read-out: t1/2β (converted)
[20] = 100 mg/kg, single i.g. IMMH-010 maleate 100 mg/kg, mean ± SD, n = 5, read-out: t1/2β (converted)

Accuracy (RE, %) (Stability in rat plasma; [3]): −1.6%
Measured conc. (Stability in rat plasma; [3]): 4.92 ± 0.25 ng/mL
Accuracy (RE, %) (Stability in rat plasma; [4]): 5.6%
Measured conc. (Stability in rat plasma; [4]): 845 ± 13 ng/mL
Accuracy (RE, %) (Stability in rat plasma; [5]): −12.2%
Measured conc. (Stability in rat plasma; [5]): 4.39 ± 0.19 ng/mL
Accuracy (RE, %) (Stability in rat plasma; [6]): −1.1%
Measured conc. (Stability in rat plasma; [6]): 791 ± 17 ng/mL
stability during the sample preparation, storage and analysis (Stability in rat plasma): stable
Accuracy (RE, %) (Stability in rat plasma; [7]): −4.8%
Measured conc. (Stability in rat plasma; [7]): 4.76 ± 0.12 ng/mL
Accuracy (RE, %) (Stability in rat plasma; [8]): 4.0%
Measured conc. (Stability in rat plasma; [8]): 832 ± 8 ng/mL
Accuracy (RE, %) (Stability in rat plasma; [9]): −2.6%
Measured conc. (Stability in rat plasma; [9]): 4.87 ± 0.50 ng/mL
Accuracy (RE, %) (Stability in rat plasma; [10]): −6.5%
Measured conc. (Stability in rat plasma; [10]): 748 ± 3 ng/mL
Accuracy (RE, %) (Stability in rat plasma; [11]): −6.2%
Measured conc. (Stability in rat plasma; [11]): 4.69 ± 0.21 ng/mL
Accuracy (RE, %) (Stability in rat plasma; [12]): 3.9%
Measured conc. (Stability in rat plasma; [12]): 831 ± 51 ng/mL
excretion in feces, % Of administered dose ([1]; time 24 h): 14.56 ± 8.45 % Of administered dose
excretion in feces, % Of administered dose ([1]; time 48 h): 19.42 ± 6.85 % Of administered dose
share of the dose recovered in the urine and feces as this analyte [1]: 20.82%
excretion in urine, % Of administered dose ([1]; time 12 h): 0.52 ± 0.15 % Of administered dose
excretion in urine, % Of administered dose ([1]; time 24 h): 0.63 ± 0.15 % Of administered dose
excretion in urine, % Of administered dose ([1]; time 36 h): 0.71 ± 0.17 % Of administered dose
excretion in urine, % Of administered dose ([1]; time 48 h): 0.85 ± 0.36 % Of administered dose
AUC(0-inf) [2, 13]: 110 ± 46.6 ng·h/mL
AUC(0-t) [2, 13]: 94.3 ± 46.3 ng·h/mL
Cmax [2, 13]: 63.7 ± 29.1 ng/mL
MRT last [2, 13]: 1.5 ± 0.4 h
MRT inf [2, 13]: 2.27 ± 0.96 h
Tmax [2, 14]: 0.5 h
AUC(0-inf) [2, 15]: 521 ± 114 ng·h/mL
AUC(0-t) [2, 15]: 503 ± 110 ng·h/mL
Cmax [2, 15]: 268 ± 43 ng/mL
MRT last [2, 15]: 1.55 ± 0.14 h
MRT inf [2, 15]: 2.06 ± 0.55 h
Tmax [2, 16]: 0.5 h
AUC(0-inf) [2, 17]: 1640 ng·h/mL
AUC(0-t) [2, 17]: 1620 ng·h/mL
Cmax [2, 17]: 569 ± 72 ng/mL
MRT last [2, 17]: 2.88 ± 0.89 h
MRT inf [2, 17]: 3.12 ± 0.87 h
Tmax [2, 18]: 1 h
half-life ([2]; 10 mg/kg, single i.g. IMMH-010 maleate 10 mg/kg, mean ± SD, n = 5, read-out: t1/2β (converted)): 1.57 ± 1.08 h
half-life [2, 19]: 3.65 ± 2.77 h
half-life ([2]; 100 mg/kg, i.g. IMMH-010 maleate 10, 30 and 100 mg/kg, range over doses, read-out: average plasma elimination half-life (t1/2β)): 1.57 to 3.65 h
half-life [2, 20]: 3.1 ± 1.76 h
dose dependence of AUC [2]: proportional to the dose
time postdose at which the metabolite could be detected in plasma ([2]; rats, after oral administration of IMMH-010 maleate): 5 min
SMILES: O=C(O)[C@H](CO)NCc1cc(Cl)c(OCc2cccc(-c3ccccc3)c2Br)cc1OCc1cccnc1 [YPD-29B]
excretion in feces, % Of administered dose ([1]; time 72 h): 19.65 % Of administered dose and 19.65 ± 6.76 % Of administered dose
excretion in urine, % Of administered dose ([1]; time 72 h): 1.17 % Of administered dose and 1.17 ± 0.91 % Of administered dose

stability in rat plasma with esterase inhibitor (Stability in rat plasma; 4°C, rat plasma containing 50 mM NaF, preliminary results): stable
Accuracy (RE, %) (Stability in rat plasma; [3]): −6.0%
Measured conc. (Stability in rat plasma; [3]): 1.88 ± 0.21 ng/mL
Accuracy (RE, %) (Stability in rat plasma; [4]): −7.5%
Measured conc. (Stability in rat plasma; [4]): 148 ± 4 ng/mL
Accuracy (RE, %) (Stability in rat plasma; [5]): 2.0%
Measured conc. (Stability in rat plasma; [5]): 2.04 ± 0.07 ng/mL
Accuracy (RE, %) (Stability in rat plasma; [6]): −3.8%
Measured conc. (Stability in rat plasma; [6]): 154 ± 4 ng/mL
stability during the sample preparation, storage and analysis (Stability in rat plasma): stable
Accuracy (RE, %) (Stability in rat plasma; [7]): 2.5%
Measured conc. (Stability in rat plasma; [7]): 2.05 ± 0.10 ng/mL
Accuracy (RE, %) (Stability in rat plasma; [8]): 8.1%
Measured conc. (Stability in rat plasma; [8]): 173 ± 20 ng/mL
Accuracy (RE, %) (Stability in rat plasma; [9]): 12.0%
Measured conc. (Stability in rat plasma; [9]): 2.24 ± 0.10 ng/mL
Accuracy (RE, %) (Stability in rat plasma; [10]): 3.8%
Measured conc. (Stability in rat plasma; [10]): 166 ± 4 ng/mL
Accuracy (RE, %) (Stability in rat plasma; [11]): 5.5%
Measured conc. (Stability in rat plasma; [11]): 2.11 ± 0.22 ng/mL
Accuracy (RE, %) (Stability in rat plasma; [12]): −1.9%
Measured conc. (Stability in rat plasma; [12]): 157 ± 4 ng/mL
excretion in feces, % Of administered dose ([1]; time 24 h): 6.97 ± 5.69 % Of administered dose
excretion in feces, % Of administered dose ([1]; time 48 h): 7.99 ± 5.66 % Of administered dose
share of the dose recovered in the urine and feces as this analyte [1]: 7.99%
AUC(0-t) [2, 13]: 8.5 ± 3.67 ng·h/mL
Cmax [2, 13]: 8.45 ± 3.27 ng/mL
MRT last [2, 13]: 0.8 ± 0.13 h
Tmax [2, 14]: 0.5 h
AUC(0-inf) [2, 15]: 44.1 ± 20.6 ng·h/mL
AUC(0-t) [2, 15]: 37.5 ± 13.5 ng·h/mL
Cmax [2, 15]: 28.4 ± 13 ng/mL
MRT last [2, 15]: 1.09 ± 0.21 h
MRT inf [2, 15]: 1.49 ± 0.3 h
Tmax [2, 16]: 0.5 h
AUC(0-inf) [2, 17]: 134 ± 45.7 ng·h/mL
AUC(0-t) [2, 17]: 129 ± 45.6 ng·h/mL
Cmax [2, 17]: 71.4 ± 34 ng/mL
MRT last [2, 17]: 1.82 ± 0.53 h
MRT inf [2, 17]: 2.11 ± 0.69 h
Tmax [2, 18]: 0.5 h
half-life [2, 19]: 0.98 ± 0.28 h
half-life [2, 20]: 1.63 ± 0.49 h
dose dependence of AUC [2]: proportional to the dose
SMILES: CC(C)OC(=O)C(CO)NCc1cc(Cl)c(OCc2cccc(-c3ccccc3)c2Br)cc1OCc1cccnc1 (stereo not drawn) [IMMH-010, 2-[4-(2-bromo-biphenyl-3-ylmethoxy)-5-chloro-2-(pyridin-3-ylmethoxy)-benzylamino]-3-hydroxy-propionic acid isopropyl ester]
excretion in feces, % Of administered dose ([1]; time 72 h): 7.99 % Of administered dose and 7.99 ± 5.66 % Of administered dose
